Laboratory results reported in patent US20020137929A1, “1 - (3-heterocyclylphenyl) isothiourea, -isourea, -guanidine and -amidine herbicidal agents” (Intellectual Property Department, BASF Aktiengesellschaft, priority 1998, published 2002).

What was measured:
[1] = system: AMBEL (Ragweed, Common); assay: Postemergence herbicidal evaluation; format: in vivo, Ambrosia artemisifolia; settings: postemergence
In short: (§1)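 Visual 0–9 rating versus control (stand, vigor, malformation, size, chlorosis, overall appearance), taken four to five weeks post-spray. Two-week-old seedlings received roughly 0.0156–0.500 kg/ha active in acetone/water (50/50) with 0.5% TWEEN 20 via nozzle at 40 psi.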

[2] = system: TRZAWR (Wheat, Winter, cv Riband); assay: Postemergence herbicidal evaluation; format: in vivo, Triticum aestivum; settings: postemergence
In short: as §1

[3] = system: GALAP (Galium); assay: Preemergence herbicidal evaluation; format: in vivo, Galium aparine; settings: rated 4-5 weeks after treatment
In short: (§2)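 In this greenhouse assay, monocot and dicot seeds are planted in soil and treated prior to emergence with an aqueous acetone spray (about 0.0156-0.500 kg/ha). Plants are assessed visually against control on a 0-9 scale after 4-5 weeks.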

[4] = system: IPOHE (Morningglory, Ivyleaf); assay: Preemergence herbicidal evaluation; format: in vivo, Ipomoea hederacea; settings: rated 4-5 weeks after treatment
In short: as §2

[5] = system: ECHCG (Barnyardgrass); assay: Postemergence herbicidal evaluation; format: in vivo, Echinochloa crus-galli; settings: postemergence
In short: as §1

[6] = system: GLXMAW (Soybean, Williams); assay: Postemergence herbicidal evaluation; format: in vivo, Glycine max, (L.) Merr. cv Williams; settings: postemergence
In short: as §1

[7] = system: ECHCG (Barnyardgrass); assay: Preemergence herbicidal evaluation; format: in vivo, Echinochloa crus-galli; settings: rated 4-5 weeks after treatment
In short: as §2

[8] = system: CHEAL (Lambsquarters, Common); assay: Preemergence herbicidal evaluation; format: in vivo, Chenopodium album; settings: rated 4-5 weeks after treatment
In short: as §2

[9] = system: ZEAMX (Corn, Field); assay: Preemergence herbicidal evaluation; format: in vivo, Zea mays; settings: rated 4-5 weeks after treatment
In short: as §2

[10] = system: ABUTH (Velvetleaf); assay: Postemergence herbicidal evaluation; format: in vivo, Abutilon theophrasti; settings: postemergence
In short: as §1

[11] = system: CASOB (Sicklepod); assay: Preemergence herbicidal evaluation; format: in vivo, Cassia obtusifolia; settings: rated 4-5 weeks after treatment
In short: as §2

[12] = system: SETVI (Foxtail, Green); assay: Postemergence herbicidal evaluation; format: in vivo, Setaria viridis; settings: postemergence
In short: as §1

[13] = system: ECHORC (Watergrass (Calif.)); assay: Postemergence weed control under flooded paddy conditions; format: in vivo, Echinochloa oryzoides; settings: postemergence weeds, rated 3 to 4 weeks after treatment
In short: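 Containers holding 3–5 cm weeds and rice at 1.5–2.5 leaves are flooded to 1.5–3 cm above soil. Compound in 50/50 v/v aqueous/acetone is then added directly to the water, about 0.0313–0.500 kg/ha. Plants are kept in the greenhouse and rated 0–9 visually at 3–4 weeks.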

[14] = system: IPOHE (Morningglory, Ivyleaf); assay: Postemergence herbicidal evaluation; format: in vivo, Ipomoea hederacea; settings: postemergence
In short: as §1

COC(=O)[C@H](Cc1ccccc1)N1C(=O)CS/C1=N/c1cc(-n2c(=O)cc(C(F)(F)F)n(C)c2=O)c(F)cc1Cl [Compound 72, Methyl α-benzyl-2-{{2-chloro-5-[3,6-dihydro-3-methyl-2,6-dioxo-4-(trifluoromethyl)-1(2H)-pyrimidinyl]-4-fluorophenyl]imino}-4-oxo-3-thiazolidineacetate, L-]
6.0: AMBEL herbicidal rating ([1]; rate 0.0630 kg/ha)
0.0: Preemergence herbicidal rating GALAP ([3]; rate 0.0156 kg/ha) | Preemergence herbicidal rating GALAP ([3]; rate 0.0313 kg/ha) | Preemergence herbicidal rating GALAP ([3]; rate 0.0625 kg/ha) | Preemergence herbicidal rating GALAP ([3]; rate 0.1250 kg/ha) | Preemergence herbicidal rating IPOHE ([4]; rate 0.0156 kg/ha) | Preemergence herbicidal rating IPOHE ([4]; rate 0.0313 kg/ha) | Preemergence herbicidal rating IPOHE ([4]; rate 0.0625 kg/ha) | Preemergence herbicidal rating ECHCG ([7]; rate 0.0156 kg/ha) | Preemergence herbicidal rating ECHCG ([7]; rate 0.0313 kg/ha) | Preemergence herbicidal rating ECHCG ([7]; rate 0.0625 kg/ha) | Preemergence herbicidal rating ECHCG ([7]; rate 0.1250 kg/ha) | Preemergence herbicidal rating ZEAMX ([9]; rate 0.0156 kg/ha) | Preemergence herbicidal rating ZEAMX ([9]; rate 0.0313 kg/ha) | Preemergence herbicidal rating ZEAMX ([9]; rate 0.0625 kg/ha) | Preemergence herbicidal rating CASOB ([11]; rate 0.0156 kg/ha) | Preemergence herbicidal rating CASOB ([11]; rate 0.0313 kg/ha) | Preemergence herbicidal rating CASOB ([11]; rate 0.0625 kg/ha)
5.5: GLXMAW herbicidal rating ([6]; rate 0.0158 kg/ha) | GLXMAW herbicidal rating ([6]; rate 0.0315 kg/ha)
3.5: TRZAWR herbicidal rating ([2]; rate 0.0158 kg/ha)
3.0: ECHCG herbicidal rating ([5]; rate 0.0315 kg/ha) | ECHCG herbicidal rating ([5]; rate 0.0630 kg/ha) | Preemergence herbicidal rating ECHCG ([7]; rate 0.2500 kg/ha)
4.0: TRZAWR herbicidal rating ([2]; rate 0.0315 kg/ha) | SETVI herbicidal rating ([12]; rate 0.0315 kg/ha)
4.5: TRZAWR herbicidal rating ([2]; rate 0.0630 kg/ha)
9.0: AMBEL herbicidal rating ([1]; rate 0.0315 kg/ha) | Preemergence herbicidal rating GALAP ([3]; rate 0.2500 kg/ha) | Preemergence herbicidal rating CHEAL ([8]; rate 0.0156 kg/ha) | Preemergence herbicidal rating CHEAL ([8]; rate 0.0313 kg/ha) | Preemergence herbicidal rating CHEAL ([8]; rate 0.0625 kg/ha) | Preemergence herbicidal rating CHEAL ([8]; rate 0.1250 kg/ha) | Preemergence herbicidal rating CHEAL ([8]; rate 0.2500 kg/ha) | ABUTH herbicidal rating ([10]; rate 0.0158 kg/ha) | ABUTH herbicidal rating ([10]; rate 0.0315 kg/ha) | ABUTH herbicidal rating ([10]; rate 0.0630 kg/ha) | Herbicidal rating ECHORC ([13]; Rate 0.0313 kg/ha) | Herbicidal rating ECHORC ([13]; Rate 0.0625 kg/ha) | Herbicidal rating ECHORC ([13]; Rate 0.1250 kg/ha) | Herbicidal rating ECHORC ([13]; Rate 0.2500 kg/ha) | IPOHE herbicidal rating ([14]; rate 0.0158 kg/ha) | IPOHE herbicidal rating ([14]; rate 0.0630 kg/ha)
1.0: ECHCG herbicidal rating ([5]; rate 0.0158 kg/ha) | Preemergence herbicidal rating ZEAMX ([9]; rate 0.1250 kg/ha) | Preemergence herbicidal rating ZEAMX ([9]; rate 0.2500 kg/ha) | Preemergence herbicidal rating CASOB ([11]; rate 0.1250 kg/ha) | Preemergence herbicidal rating CASOB ([11]; rate 0.2500 kg/ha)
7.0: Preemergence herbicidal rating IPOHE ([4]; rate 0.2500 kg/ha) | GLXMAW herbicidal rating ([6]; rate 0.0630 kg/ha) | IPOHE herbicidal rating ([14]; rate 0.0315 kg/ha)
2.0: Preemergence herbicidal rating IPOHE ([4]; rate 0.1250 kg/ha) | SETVI herbicidal rating ([12]; rate 0.0158 kg/ha) | SETVI herbicidal rating ([12]; rate 0.0630 kg/ha)
5.0: AMBEL herbicidal rating ([1]; rate 0.0158 kg/ha)
